The results in this text go back to patent US12043632B2, “6-heteroaryloxy benzimidazoles and azabenzimidazoles as JAK2 inhibitors” (Ajax Therapeutics, Inc., priority 2020, dated 2024).

T1 sequence (O60674 849-1124 Y1007F/Y1008F limits assumed): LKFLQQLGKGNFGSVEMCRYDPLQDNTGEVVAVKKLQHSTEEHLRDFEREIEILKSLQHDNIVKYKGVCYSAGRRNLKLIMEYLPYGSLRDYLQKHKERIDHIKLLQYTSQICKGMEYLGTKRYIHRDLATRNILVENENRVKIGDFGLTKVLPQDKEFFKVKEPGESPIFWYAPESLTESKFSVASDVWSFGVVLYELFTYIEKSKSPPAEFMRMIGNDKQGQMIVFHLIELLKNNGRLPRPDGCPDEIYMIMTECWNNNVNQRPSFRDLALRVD

This assay concerns the target T1, JAK2 (JH1domain-catalytic, Y1007F,Y1008F) kinase (Homo sapiens, UniProt O60674, Y1007F/Y1008F).
T1 construct: JAK2 (JH1domain-catalytic, Y1007F,Y1008F) kinase was expressed as N-terminal fusion; made in house; host or cells: transiently transfected HEK293 cells
As to the kind of experiment: JAK2 JH1 Domain Binding Assay. To be noted: qPCR readout.
The term Kd denotes a measure of binding affinity in units of concentration. A low value points to tighter binding. Molecule `CCc1cc(Nc2nc3ncc(Oc4cnn5ccncc45)c(Cl)c3n2C)cc(C(=O)N2CCC2)n1` [Example I-188, Azetidin-1-yl(4-((7-chloro-1-methyl-6-(pyrazolo[1,5-a]pyrazin-3-yloxy)-1H-imidazo[4,5-b]pyridin-2-yl)amino)-6-ethylpyridin-2-yl)methanone] showed a Kd below 0.01 µM. Turning to `CNc1nccn2ncc(Oc3cnc4nc(Nc5ccc(CN6CC(F)C6)c(C(F)(F)F)c5)n(C)c4c3Cl)c12` [Example I-189, 7-chloro-N-(4-((3-fluoroazetidin-1-yl)methyl)-3-(trifluoromethyl)phenyl)-1-methyl-6-((4-(methylamino)pyrazolo[1,5-a]pyrazin-3-yl)oxy)-1H-imidazo[4,5-b]pyridin-2-amine], the Kd lay within 0.01 to 0.05 µM.

As to `CNc1nccn2ncc(Oc3cnc4nc(Nc5ccc(CN6CC(OC)C6)c(C(F)(F)F)c5)n(C)c4c3Cl)c12` [Example I-190, 7-chloro-N-(4-((3-methoxyazetidin-1-yl)methyl)-3-(trifluoromethyl)phenyl)-1-methyl-6-((4-(methylamino)pyrazolo[1,5-a]pyrazin-3-yl)oxy)-1H-imidazo[4,5-b]pyridin-2-amine], the Kd lay in the range of 0.01 to 0.05 µM. In turn, `CNc1nccn2ncc(Oc3cnc4nc(Nc5ccc(CN6CC[C@H](OC)C6)c(C(F)(F)F)c5)n(C)c4c3Cl)c12` [Example I-191, (S)-7-chloro-N-(4-((3-methoxypyrrolidin-1-yl)methyl)-3-(trifluoromethyl)phenyl)-1-methyl-6-((4-(methylamino)pyrazolo[1,5-a]pyrazin-3-yl)oxy)-1H-imidazo[4,5-b]pyridin-2-amine] gave a Kd of 0.01 to 0.05 µM. `CNc1nccn2ncc(Oc3cnc4nc(Nc5ccc(CN6CC[C@@H](OC)C6)c(C(F)(F)F)c5)n(C)c4c3Cl)c12` [Example I-192]: the Kd lay in the range of 0.01 to 0.05 µM. Molecule `CNc1nccn2ncc(Oc3cnc4nc(Nc5cc(C(F)(F)F)cn(C)c5=O)n(C)c4c3C#N)c12` [Example I-193, 1-methyl-2-((1-methyl-2-oxo-5-(trifluoromethyl)-1,2-dihydropyridin-3-yl)amino)-6-((4-(methylamino)pyrazolo[1,5-a]pyrazin-3-yl)oxy)-1H-imidazo[4,5-b]pyridine-7-carbonitrile] gave a Kd below 0.01 µM. `Cn1c(Nc2cc(CN3CCOCC3)cc(C(F)(F)F)c2)nc2ncc(Oc3cnn4ccncc34)c(Cl)c21` [Example I-194, 7-chloro-1-methyl-N-(3-(morpholinomethyl)-5-(trifluoromethyl)phenyl)-6-(pyrazolo[1,5-a]pyrazin-3-yloxy)-1H-imidazo[4,5-b]pyridin-2-amine] displayed a Kd below 0.01 µM. As for `Cn1c(Nc2cc(CN3CC(F)C3)cc(C(F)(F)F)c2)nc2ncc(Oc3cnn4ccncc34)c(Cl)c21` [Example I-195, 7-chloro-N-(3-((3-fluoroazetidin-1-yl)methyl)-5-(trifluoromethyl)phenyl)-1-methyl-6-(pyrazolo[1,5-a]pyrazin-3-yloxy)-1H-imidazo[4,5-b]pyridin-2-amine], the Kd is below 0.01 µM.

Molecule `COC1CN(Cc2cc(Nc3nc4ncc(Oc5cnn6ccncc56)c(Cl)c4n3C)cc(C(F)(F)F)c2)C1` [Example I-196, 7-chloro-N-(3-((3-methoxyazetidin-1-yl)methyl)-5-(trifluoromethyl)phenyl)-1-methyl-6-(pyrazolo[1,5-a]pyrazin-3-yloxy)-1H-imidazo[4,5-b]pyridin-2-amine] returned a dissociation constant Kd below 0.01 µM.

For `Cn1c(Nc2cc(CN3CCC(F)(F)C3)cc(C(F)(F)F)c2)nc2ncc(Oc3cnn4ccncc34)c(Cl)c21` [Example I-197, 7-chloro-N-(3-((3,3-difluoropyrrolidin-1-yl)methyl)-5-(trifluoromethyl)phenyl)-1-methyl-6-(pyrazolo[1,5-a]pyrazin-3-yloxy)-1H-imidazo[4,5-b]pyridin-2-amine], the Kd is below 0.01 µM. `COC1CCN(Cc2cc(Nc3nc4ncc(Oc5cnn6ccncc56)c(Cl)c4n3C)cc(C(F)(F)F)c2)CC1` [Example I-198, 7-chloro-N-(3-((4-methoxypiperidin-1-yl)methyl)-5-(trifluoromethyl)phenyl)-1-methyl-6-(pyrazolo[1,5-a]pyrazin-3-yloxy)-1H-imidazo[4,5-b]pyridin-2-amine]: the Kd is below 0.01 µM. `CNc1nccn2ncc(Oc3cnc4nc(Nc5cc(C6CC6)nn(C)c5=O)n(C)c4c3Cl)c12` [Example I-199, 4-((7-chloro-1-methyl-6-((4-(methylamino)pyrazolo[1,5-a]pyrazin-3-yl)oxy)-1H-imidazo[4,5-b]pyridin-2-yl)amino)-6-cyclopropyl-2-methylpyridazin-3(2H)-one] gave a Kd below 0.01 µM. The molecule `Cn1c(C#N)c(C(F)(F)F)cc(Nc2nc3ncc(Oc4cnn5ccncc45)c(Cl)c3n2C)c1=O` [Example I-200, 5-((7-chloro-1-methyl-6-(pyrazolo[1,5-a]pyrazin-3-yloxy)-1H-imidazo[4,5-b]pyridin-2-yl)amino)-1-methyl-6-oxo-3-(trifluoromethyl)-1,6-dihydropyridine-2-carbonitrile] came in with a Kd of 0.01 to 0.05 µM. Under `CNc1nccn2ncc(Oc3cnc4nc(Nc5cc(C(F)(F)C(F)(F)F)cn(C)c5=O)n(C)c4c3Cl)c12` [Example I-201, 3-((7-chloro-1-methyl-6-((4-(methylamino)pyrazolo[1,5-a]pyrazin-3-yl)oxy)-1H-imidazo[4,5-b]pyridin-2-yl)amino)-1-methyl-5-(perfluoroethyl)pyridin-2(1H)-one] stands below 0.01 µM; under `CNc1nccn2ncc(Oc3cnc4nc(Nc5cc(C(F)(F)F)cn(C(C)C)c5=O)n(C)c4c3Cl)c12` [Example I-202, 3-((7-chloro-1-methyl-6-((4-(methylamino)pyrazolo[1,5-a]pyrazin-3-yl)oxy)-1H-imidazo[4,5-b]pyridin-2-yl)amino)-1-isopropyl-5-(trifluoromethyl)pyridin-2(1H)-one], below 0.01 µM; under `Cn1c(Nc2cnc(N3CCC3)c(C(F)(F)F)c2)nc2ncc(Oc3cnn4ccncc34)c(Cl)c21` [Example I-203, N-(6-(azetidin-1-yl)-5-(trifluoromethyl)pyridin-3-yl)-7-chloro-1-methyl-6-(pyrazolo[1,5-a]pyrazin-3-yloxy)-1H-imidazo[4,5-b]pyridin-2-amine], 0.01 to 0.05 µM. `Cn1c(Nc2cc(CN3CC[C@@H](O)C3)cc(C(F)(F)F)c2)nc2ncc(Oc3cnn4ccncc34)c(Cl)c21` [Example I-204, (R)-1-(3-((7-chloro-1-methyl-6-(pyrazolo[1,5-a]pyrazin-3-yloxy)-1H-imidazo[4,5-b]pyridin-2-yl)amino)-5-(trifluoromethyl)benzyl)pyrrolidin-3-ol] returned a Kd below 0.01 µM. `Cn1c(Nc2cc(CN3CC[C@H](O)C3)cc(C(F)(F)F)c2)nc2ncc(Oc3cnn4ccncc34)c(Cl)c21` [Example I-205, (S)-1-(3-((7-chloro-1-methyl-6-(pyrazolo[1,5-a]pyrazin-3-yloxy)-1H-imidazo[4,5-b]pyridin-2-yl)amino)-5-(trifluoromethyl)benzyl)pyrrolidin-3-ol] returned a Kd below 0.01 µM. The molecule `CN1CCC(Oc2cc(Nc3nc4ncc(Oc5cnn6ccncc56)c(Cl)c4n3C)cc(C(F)(F)F)c2)CC1` [Example I-206, 7-chloro-1-methyl-N-(3-((1-methylpiperidin-4-yl)oxy)-5-(trifluoromethyl)phenyl)-6-(pyrazolo[1,5-a]pyrazin-3-yloxy)-1H-imidazo[4,5-b]pyridin-2-amine] registered a Kd below 0.01 µM.

`Cn1c(Nc2ccc(CN3CCN(CCO)CC3)c(C(F)(F)F)c2)nc2ncc(Oc3cnn4ccncc34)c(Cl)c21` [Example I-207, 2-(4-(4-((7-chloro-1-methyl-6-(pyrazolo[1,5-a]pyrazin-3-yloxy)-1H-imidazo[4,5-b]pyridin-2-yl)amino)-2-(trifluoromethyl)benzyl)piperazin-1-yl)ethan-1-ol] yielded a Kd below 0.01 µM. On to `Cn1c(Nc2ccc(CN3CCN(CC(F)F)CC3)c(C(F)(F)F)c2)nc2ncc(Oc3cnn4ccncc34)c(Cl)c21` [Example I-208, 7-chloro-N-(4-((4-(2,2-difluoroethyl)piperazin-1-yl)methyl)-3-(trifluoromethyl)phenyl)-1-methyl-6-(pyrazolo[1,5-a]pyrazin-3-yloxy)-1H-imidazo[4,5-b]pyridin-2-amine], for which the Kd was 0.05 to 1 µM. Take `CN1CC[C@@H](Oc2cc(Nc3nc4ncc(Oc5cnn6ccncc56)c(Cl)c4n3C)cc(C(F)(F)F)c2)C1` [Example I-209, (R)-7-chloro-1-methyl-N-(3-((1-methylpyrrolidin-3-yl)oxy)-5-(trifluoromethyl)phenyl)-6-(pyrazolo[1,5-a]pyrazin-3-yloxy)-1H-imidazo[4,5-b]pyridin-2-amine]: the Kd is 0.01 to 0.05 µM. As for `CN1CC[C@H](Oc2cc(Nc3nc4ncc(Oc5cnn6ccncc56)c(Cl)c4n3C)cc(C(F)(F)F)c2)C1` [Example I-210, (S)-7-chloro-1-methyl-N-(3-((1-methylpyrrolidin-3-yl)oxy)-5-(trifluoromethyl)phenyl)-6-(pyrazolo[1,5-a]pyrazin-3-yloxy)-1H-imidazo[4,5-b]pyridin-2-amine], the figure is below 0.01 µM; as for `COc1c(Oc2cnn3ccnc(OC)c23)cnc2nc(Nc3cc(C4CC4)cn(C)c3=O)n(C)c12` [Example I-211, 5-cyclopropyl-3-((7-methoxy-6-((4-methoxypyrazolo[1,5-a]pyrazin-3-yl)oxy)-1-methyl-1H-imidazo[4,5-b]pyridin-2-yl)amino)-1-methylpyridin-2(1H)-one], below 0.01 µM; as for `Cn1cc(C(F)(F)F)cc(Nc2nc3ncc(Oc4cnn5ccccc45)c(C#N)c3n2C)c1=O` [Example I-212, 1-methyl-2-((1-methyl-2-oxo-5-(trifluoromethyl)-1,2-dihydropyridin-3-yl)amino)-6-(pyrazolo[1,5-a]pyridin-3-yloxy)-1H-imidazo[4,5-b]pyridine-7-carbonitrile], below 0.01 µM. Under `Cn1c(Nc2cc(C(F)(F)F)cn([C@H]3C[C@@H](O)C3)c2=O)nc2ncc(Oc3cnn4ccc(F)cc34)c(Cl)c21` [Example I-213, cis-3-((7-chloro-6-((5-fluoropyrazolo[1,5-a]pyridin-3-yl)oxy)-1-methyl-1H-imidazo[4,5-b]pyridin-2-yl)amino)-1-(3-hydroxycyclobutyl)-5-(trifluoromethyl)pyridin-2(1H)-one] stands 0.01 to 0.05 µM.
